Experimental data from patent US11028061B2, “Modulators of myocyte lipid accumulation and insulin resistance and methods of use thereof” (Sanford Burnham Prebys Medical Discovery Institute, priority 2015, dated 2021).

Key:
[1] = system: C57BL/6 mice with diet-induced obesity; assay: Diet-induced obesity (60% high fat diet) mouse study; format: in vivo; details: HFD mice
Description: Following a 5 hour fast, a blood sample was obtained from the tail tip for the measurement of baseline glucose using a hand-held glucometer (Accu-Chek Aviva Plus, Roche). A bolus of glucose (1 g/kg) was then administered via i.p. injection. Blood samples were obtained at 5, 15, 30, 60 and 90 minutes following the glucose bolus for measurement of blood glucose. For detection of insulin signaling, mice were fasted for 5 hours on the last day of the study. Gastrocnemius skeletal muscle and liver tissues were harvested 10 minutes after an acute insulin administration (1.5 U/kg, i.p.) and immediately snap frozen. The tissue samples were homogenized in RIPA buffer containing 1% NP-40, 5 mM Na4P2O7, 1 mM EDTA, 20 mM NaF, 2 mM Na3VO4, 1× Complete protease inhibitor (Roche) and 1 mM phenylmethylsulfonyl fluoride. Western blot analysis for levels of phospho-Akt (S473) and total Akt was then performed.
(§1) All animal studies were performed in accordance with the National Institute of Health guidelines for humane treatment of animals and approved by the IACUC of the Sanford Burnham Prebys Medical Discovery Institute at Lake Nona. Six week old male C57BL/6J mice were obtained from Jackson Laboratory (stock number 000664) and acclimated for 1 week prior to study. Mice were maintained on standard chow or a 60% high fat diet (Research Diets, USA) for 8 weeks. SBI-993 was dissolved in a vehicle containing 2% DMSO, 2% Tween-80, and 96% water (pH9.0). Seven weeks after HFD feeding, mice were subcutaneously injected with SBI-993 (50 mg/kg mouse body weight) once daily for 7 days. Each group contains 6-10 mice and three independent experiments were conducted.
(§2) To determine if the effects conferred by SBI-477 observed in myocytes in culture are relevant in vivo, studies were conducted in C57BL/6 mice with diet-induced obesity. […] Mice were fed a 60% high fat diet (HFD) for 8 weeks resulting in significant weight gain (FIG. 6I). During the final week of HFD feeding, SBI-993 or vehicle control was administered as a once daily dose (50 mg/kg s.c.) for 7 days.

[2] = Plasma concentration in high fat diet mice; format: in vivo; details: male, C57BL/6J, mouse, sc, 4 hours following the final dose, 50 mg/kg s.c. once daily for 7 days
Description: as §1, §2

[3] = system: human skeletal myotubes; assay: Triglyceride accumulation in oleate-loaded human skeletal myotubes; format: cell-based
Description: Human skeletal myotubes were differentiated for 8 days. On day 7, 100 μM of oleic acid complexed to fatty acid-free BSA was added to the cells with the indicated concentration of test compound for 24 hours. Following incubation with oleate and compound, cells were formaldehyde fixed and stained with AdipoRed™ (Lonza). Triglyceride accumulation was measured using signal intensity at excitation 540/emission 590 nm (Bio-Tek Instruments, Inc.). Dose response curves were generated in Prism 6 (GraphPad Software). EC50 values were calculated using non-linear regression analysis. For biochemical measurement of triglyceride, human skeletal myotubes were incubated with oleate-BSA and test compound as described above. After 24 hour incubation, cells were collected with a lysis buffer containing 0.1% IGEPAL CA-630 (Sigma-Aldrich) in PBS. The harvested cells were sonicated for 5 seconds and then centrifuged at 10,000×g for 10 minutes at 4° C. The supernatant was removed and stored on ice. TAG levels were quantified using Infinity™ Triglycerides Liquid Stable Reagent (Thermo Scientific), following the manufacturer's instructions for colorimetric assay.
Student's t-test, Mann Whitney test, one-way ANOVA with Bonferroni post hoc test, or two-way ANOVA with Tukey post hoc test was performed to determine statistical significance as indicated. […]

[4] = system: primary murine skeletal myocytes; assay: TAG accumulation in primary murine skeletal myocytes; format: cell-based; details: Mus musculus; primary murine skeletal myocytes; read-out: Activity Score (IC50), triacylglyceride (TAG) accumulation
[5] = system: ARRDC4; assay: ARRDC4 expression by quantitative RT-PCR in human myotubes; format: cell-based; details: 24 hours
Description: FIGS. 4A-C show downregulation of TXNIP and ARRDC4 expression by SBI-477. (FIG. 4A) TXNIP and ARRDC4 mRNA levels as determined by quantitative RT-PCR in human myotubes treated with SBI-477 (10 μM) or DGAT1 inhibitor (DGATi, […]) for 24 hours in the absence or presence of 100 μM oleate (n=4). Expression is shown relative to vehicle/BSA treatment. (FIG. 4B) TXNIP gene expression following exposure to a dose range of SBI-477 for 24 hours (n=4). (FIG. 4C) Left, Effect of SBI-477 on TXNIP protein levels as determined by western blot analysis by SBI-477. Right, Quantitation of the TXNIP western blot data is shown (n=5). *p<0.05 vs. Vehicle/BSA control, †p<0.05 vs. Vehicle/oleate by one-way ANOVA with Bonferroni post hoc test. The data are shown as mean±SD.
Total RNA was isolated using RNeasy Mini Kit (Qiagen) according to the manufacturer's instructions. cDNA was synthesized using the Affinity Script cDNA Synthesis Kit (Stratagene) with 0.5 μg of total RNA. PCR reactions were performed in triplicate […] Roche LightCycler® 480 Instrument II) with specific primers for each gene.

[6] = muscle and liver, 50 mg/kg s.c. 7 days

COc1ccc(-c2csc(NC(=O)c3ccc(NCC(=O)N4CCOCC4)cc3)n2)cc1 [Cpd. 66, N-(4-(4-methoxyphenyl)thiazol-2-yl)-4-((2-morpholino-2-oxoethyl)amino)benzamide]
Glucose tolerance (1 g/kg glucose, i.p.) ([1]; 50 mg/kg s.c. 7 days): improved glucose tolerance
Hepatic steatosis ([1]; 50 mg/kg s.c. 7 days): substantially ameliorated
TAG levels in skeletal muscle ([1]; 50 mg/kg s.c. 7 days): significantly reduced
Body weight compared to vehicle ([1]; 50 mg/kg s.c. once daily for 7 days): small but significant reduction
Food intake ([1]; data not shown): not due to reduced food intake
Occupation of ChREBP and MondoA on Txnip and Pklr gene promoters (ChIP) ([1]; liver, 1 week administration): reduced in liver
Insulin signaling (phosphorylated Akt S473) after acute insulin challenge ([1]; muscle and liver): improved insulin signaling
Expression of TAG synthesis and lipogenic genes [1, 6]: reduced the expression
Txnip and Arrdc4 expression [1, 6]: reduced Txnip and Arrdc4 expression
concentration at 4 h [2]: 4.97 ± 0.97 µM
Potency compared with SBI-477 (inhibition of triglyceride accumulation, FIG. 6H) [3]: improved potency
IC50 [4]: < 1 µM
ARRDC4 expression [5]: to a similar degree as SBI-477

COCCNC(=O)COc1ccc(C(=O)Nc2nc(-c3ccc(OC)cc3)cs2)cc1OC [Cpd. 20, 3-methoxy-4-(2-((2-methoxyethyl)amino)-2-oxoethoxy)-N-(4-(4-methoxyphenyl)thiazol-2-yl)benzamide]
IC50 [4]: 1 to 10 µM

COc1ccc(-c2csc(NCc3ccc(OCC(=O)N4CCOCC4)c(OC)c3)n2)cc1 [Cpd. 89, 2-(2-methoxy-4-(((4-(4-methoxyphenyl)thiazol-2-yl)amino)methyl)phenoxy)-1-morpholinoethan-1-one]
IC50 [4]: 1 to 10 µM

CCc1ccc(-c2csc(NC(=O)c3ccc(OCC(=O)N4CCOCC4)cc3)n2)cc1 [Cpd. 44, N-(4-(4-ethylphenyl)thiazol-2-yl)-4-(2-morpholino-2-oxoethoxy)benzamide]
IC50 [4]: < 1 µM

COc1cc(C(=O)Nc2ncc(-c3ccccc3)s2)ccc1OCC(=O)N1CCOCC1 [compound 79, 3-methoxy-4-(2-morpholino-2-oxoethoxy)-N-(5-phenylthiazol-2-yl)benzamide]
IC50 [4]: > 10 µM

CCN(CCN(C)C)C(=O)COc1ccc(C(=O)Nc2nc(-c3ccc(OC)cc3)cs2)cc1OC [Cpd. 15, 4-(2-((2-(dimethylamino)ethyl)(ethyl)amino)-2-oxoethoxy)-3-methoxy-N-(4-(4-methoxyphenyl)thiazol-2-yl)benzamide]
IC50 [4]: > 10 µM

COc1ccc(-c2csc(NC(=O)CCC(=O)N3CCOc4ccccc43)n2)cc1 [Cpd. 81, 4-(2,3-dihydro-4H-benzo[b][1,4]oxazin-4-yl)-N-(4-(4-methoxyphenyl)thiazol-2-yl)-4-oxobutanamide]
IC50 [4]: < 1 µM
